Measurements as given in publication PMC10610095 (Pharmaceuticals, 2023).
Where “and” joins values, the source holds several entries; their conditions need not be identical. Identical values can stand only once. Values belong to the compound of their own block, whether it stands above or below them.

Key:
GPR44 = system: GPR44; design: method as in PMID 30557325; settings: clinical trial, orally administered; cited from earlier work
DP1 = system: DP1; design: method as in PMID 33800801; settings: cited from earlier work
TP = system: TP; design: method as in PMID 33800801; settings: cited from earlier work
[1] = target: T1, GPR44 (transplanted human islets) (Homo sapiens, UniProt Q9Y5Y4); assay: Biodistribution in NOD/SCID mice with transplanted human islets in a renal capsule; format: in vivo; settings: 500 IEQ human islets, 30 min p.i., two individual mice
T1 construct: Only transplanted human islets were targeted by the GPR44 radio-probes; tissue Southern California Islet Cell Resources Center; host or cells: human pancreatic islets from healthy adult donors, 500 IEQ transplanted into the renal capsule of NOD/SCID mice
T1 sequence (Q9Y5Y4 1-395): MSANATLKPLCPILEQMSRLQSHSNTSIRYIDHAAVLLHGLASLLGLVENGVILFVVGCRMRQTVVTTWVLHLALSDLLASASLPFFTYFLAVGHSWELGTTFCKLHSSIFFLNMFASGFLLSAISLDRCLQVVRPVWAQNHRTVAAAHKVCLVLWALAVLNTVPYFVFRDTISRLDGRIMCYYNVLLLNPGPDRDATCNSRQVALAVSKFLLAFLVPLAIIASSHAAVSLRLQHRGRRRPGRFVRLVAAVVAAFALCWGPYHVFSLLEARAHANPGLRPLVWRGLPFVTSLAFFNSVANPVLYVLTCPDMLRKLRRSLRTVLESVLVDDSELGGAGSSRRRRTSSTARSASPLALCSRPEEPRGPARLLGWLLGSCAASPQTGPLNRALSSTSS
Description: A procedure similar to that of the above murine biodistribution was performed in this biodistribution study. Mice were euthanized at 30 min post-injection, and the organs/tissues of interest were collected.
Human islets with diameters of less than 250 µm were used for transplantation. A total of 500 IEQ human islets were transplanted into the renal capsule of NOD/SCID mice (n = 5) using a well-established standard procedure.
(§1) Under general anesthesia, NOD/SCID mice were administered doses of tracer (~3.7 MBq) intravenously through the tail vein, then the animals were euthanized at 30 min post-injection. Organs/tissues/islets of interest were harvested, weighed, and gamma-counted. Radioactive uptakes were calculated and reported as percentage of injected dose per gram (% ID/g) for each organ/tissue/islet.

GPR44 (1.1 B4 tumor) = target: T2, GPR44 (1.1 B4 tumor) (Homo sapiens, UniProt Q9Y5Y4); assay: Biodistribution in NOD/SCID mice implanted with 1.1 B4 cells, with and without blocking agent; format: in vivo; settings: 30 min p.i.; for pancreas uptake: 1.1 B4 model; for tumor uptake: 1.1 B4 tumor
T2 construct: 1.1 B4 cells were implanted into NOD/SCID mice to generate GPR44-expressing mouse models; endogenous in cells; host or cells: human 1.1 B4 hybrid cell line (human pancreatic islet culture x PANC-1), subcutaneous xenograft in NOD/SCID mice
T2 sequence (Q9Y5Y4 1-395): T1 sequence (Q9Y5Y4 1-395)
Description: NOD/SCID mice (n = 24) were subcutaneously injected with 1.1 B4 cells above their shoulders. Tumors were established 17–21 d after injection.
as §1, with “Organs/tissues/tumors” for “Organs/tissues/islets”, “organ/tissue/tumor.” for “organ/tissue/islet.”

[2] = Biodistribution in healthy control NOD/SCID mice; format: in vivo; settings: i.v.
Description: The uptake of the tracer in the kidney was ~4.00 ± 0.80% ID/g at 30 min p.i, 2.11 ± 1.06% ID/g at 60 min p.i., and 1.33 ± 0.47% ID/g at 90 min p.i. […] Low tracer uptake levels were common in the majority of organs, excluding excretion organs such as the liver. […] Of the time points, 30 min post-injection was chosen to evaluate the next specific GPR44 mouse models.
The biodistribution of [^18F]TM30089 was investigated in healthy NOD/SCID mice at various time points post-injection. Three time points (30 min, 60 min, or 90 min post-injection) and one blocking time point (30 min post-injection) were selected in the biodistribution (n = 4/each group). […] Under general anesthesia, NOD/SCID mice were administered doses of tracer (~3.7 MBq) intravenously through the tail vein. At the above-specified time points, the animals were euthanized, and the organs/tissues of interest were harvested. Organs/tissues were weighed, and the gamma was counted. Radioactive uptakes were calculated and reported as percentage of injected dose per gram (% ID/g) for each organ.

[3] = system: GPR44 vs thromboxane receptor (TP); design: method as in PMID 15179446; settings: cited from earlier work

Compound: CC(=O)Nc1cccc2c1c(Sc1ccc(Cl)cc1)c(C)n2CC(=O)O [AZD1981]
improvement in insulin secretion (GPR44): did not show a significant improvement in insulin secretion

Compound: CN(C1CCc2c(c3ccccc3n2CC(=O)O)C1)S(=O)(=O)c1ccc(F)cc1 (stereo not shown) [TM-30089, {3-[(4-fluoro-benzenesulfonyl)methyl-amino]-1,2,3,4-tetrahydro-carbazol-9-yl}acetic acid]
off-target binding to DP1 (DP1): negligible off-target binding | off-target binding to TP (TP): negligible off-target binding

uptake in human islets transplanted into a kidney capsule [1]: 10.87 % ID/g and 6.21 % ID/g | pancreas uptake (GPR44 (1.1 B4 tumor); blocked group (cold TM30089 1 mg/kg)): 0.26 ± 0.05 % ID/g | pancreas uptake (GPR44 (1.1 B4 tumor); non-blocked group): 0.38 ± 0.04 % ID/g | tumor uptake (GPR44 (1.1 B4 tumor); blocked with cold TM30089 (1 mg/kg)): 0.24 ± 0.02 % ID/g | tumor uptake (GPR44 (1.1 B4 tumor); non-blocked): 27.81 ± 1.71 % ID/g | uptake in other organs (heart, lung, pancreas, spleen) [2]: low uptakes | kidney uptake ([2]; 30 min p.i.): ~ 4.00 ± 0.80 % ID/g | liver uptake ([2]; 30 min p.i.): 15.31 ± 0.16 % ID/g | small intestine uptake ([2]; 30 min p.i.): 10.67 ± 2.13 % ID/g | kidney uptake ([2]; 60 min p.i.): 2.11 ± 1.06 % ID/g | liver uptake ([2]; 60 min p.i.): 8.76 ± 1.60 % ID/g | small intestine uptake ([2]; 60 min p.i.): 10.14 ± 0.47 % ID/g | kidney uptake ([2]; 90 min p.i.): 1.33 ± 0.47 % ID/g | liver uptake ([2]; 90 min p.i.): 6.62 ± 0.57 % ID/g | small intestine uptake ([2]; 90 min p.i.): 9.90 ± 0.26 % ID/g
Compound: CN(C1CCc2c(c3ccccc3n2CC(=O)O)C1)S(=O)(=O)c1ccc([18F])cc1 (stereo not shown) [[^18F]TM-30089]

Compound: O=C(O)CCn1c2c(c3ccccc31)C[C@H](NS(=O)(=O)c1ccc(F)cc1)CC2 [ramatroban]
selectivity for GPR44 than for TP (times less) [3]: approximately 16 times
